Measurements taken from US8962846B2, “Melanocortin receptor antagonist compounds, process for preparing them and use thereof in human medicine and cosmetics” (Galderma Research & Development, priority 2008, dated 2015).

Columns and labels:
hMC4-R = target: T1, hMC4-R (Homo sapiens, UniProt P32245); assay: Transactivation test: melanocortin receptors (CRE-Luc luciferase), hMC4-R; assay type: cell-based; settings: HEK293 transfected with pCRE-Luc and receptor; 10-point dose response from 10 μM; antagonist behaviour tested in presence of 1 nM NDP-MSH; 6 hours incubation
T1 construct: expressed in transfected cells; host or cells: HEK293
Description: (§1) The lines HEK293 are transfected with vectors pCRE-Luc and hMCl1R or hMCl4R. The cells are cultured at 37° C. and 5% CO2, in DMEM medium supplemented with 10% foetal calf serum.
(§2) In the presence of an activator (agonist), the melanocortin receptor will activate the cAMP pathway, which, via the vector CRE-Luc, will lead to the synthesis of luciferase. After addition of a lysis buffer containing a luminescent luciferase substrate, the luminescence proportional to the degree of activation or inhibition of receptor may be measured.
(§3) The products are dissolved at 10 mM in DMSO. They are tested as a response dose at 0.1% of DMSO final. The range comprising 10 points and a zero starts at 10 μM with four-fold dilutions. To test agonists, the products are tested alone. To determine the antagonist behaviour, the products of interest are tested in the presence of 1 nM NDP-MSH (reference agonist). The cells are inoculated at a rate of 5000 cells per well (384-well plate) in serum-free DMEM medium and incubated overnight at 37° C. and 5% CO2.
(§4) The products and the reference ligand (NDP-MSH) are added the following day and the plates are reincubated for 6 hours at 37° C. and 5% CO2. After adding the lysis buffer containing luciferin, the plates are read in a Top-Count machine. The results are normalized as percentage of activity using the 100% (cells+NDP-MSH at 10 nM) and 0% (cells alone) controls. An EC50 is calculated for each product using the XLFit software.

hMC1-R = target: T2, hMC1-R (Homo sapiens, UniProt Q01726); assay: Transactivation test: melanocortin receptors (CRE-Luc luciferase), hMC1-R; assay type: cell-based; settings: HEK293 transfected with pCRE-Luc and receptor; 10-point dose response from 10 μM; antagonist behaviour tested in presence of 1 nM NDP-MSH; 6 hours incubation
T2 construct: expressed in transfected cells; host or cells: HEK293
Description: as §1, §2, §3, §4

T2 sequence (Q01726 whole entry): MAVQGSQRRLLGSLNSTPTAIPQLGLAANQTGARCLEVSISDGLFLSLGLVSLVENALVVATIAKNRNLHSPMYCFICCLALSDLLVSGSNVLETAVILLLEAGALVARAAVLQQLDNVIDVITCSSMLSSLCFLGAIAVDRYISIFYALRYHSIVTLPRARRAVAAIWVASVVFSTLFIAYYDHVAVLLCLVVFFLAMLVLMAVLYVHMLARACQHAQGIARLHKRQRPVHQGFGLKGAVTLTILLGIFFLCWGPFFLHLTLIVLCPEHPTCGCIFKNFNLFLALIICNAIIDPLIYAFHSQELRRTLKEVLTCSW
T1 sequence (P32245 whole entry): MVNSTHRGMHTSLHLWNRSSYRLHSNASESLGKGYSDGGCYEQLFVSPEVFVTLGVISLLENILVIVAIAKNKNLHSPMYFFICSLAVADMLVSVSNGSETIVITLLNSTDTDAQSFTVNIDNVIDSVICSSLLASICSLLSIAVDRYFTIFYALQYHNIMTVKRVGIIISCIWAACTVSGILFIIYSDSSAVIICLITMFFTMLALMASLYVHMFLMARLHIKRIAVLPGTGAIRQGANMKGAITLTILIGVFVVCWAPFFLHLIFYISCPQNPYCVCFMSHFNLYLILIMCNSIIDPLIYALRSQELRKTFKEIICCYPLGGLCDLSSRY

Row | Structure (SMILES) | EC50 (hMC4-R) [nM] | EC50 (hMC1-R) [nM]
1 | CCOC(=O)C1(C2CCCCC2)CCN(C(=O)[C@@H](Cc2ccc(Cl)cc2Cl)NC(=O)NCCc2c[nH]cn2)CC1 [Example 9, Ethyl 4-cyclohexyl-1-((R)-3-(2,4-dichlorophenyl)-2-{3-[2-(1H-imidazol-4-yl)ethy]ureido}propionyl)piperidine-4-carboxylate] | 2 | 1000
2 | CCOC(=O)C1(C2CCCCC2)CCN(C(=O)[C@@H](Cc2ccc(Cl)c(Cl)c2)NC(=O)NCCc2c[nH]cn2)CC1 [Example 5, Ethyl 4-cyclohexyl-1-((R)-3-(3,4-dichlorophenyl)-2-{3-[2-(1H-imidazol-4-yl)ethyl]ureido}propionyl)piperidine-4-carboxylate] | 15 | 
3 | CCCC(=O)C1(C2CCCCC2)CCN(C(=O)[C@@H](Cc2ccc(OC)cc2)NC(=O)NCCc2c[nH]nn2)CC1 [Example 3, 1-[(R)-2-(4-Butyryl-4-cyclohexylpiperidin-1-yl)-1-(4-methoxybenzyl)-2-oxoethyl]-3-[2-(1H-[1,2,3]triazol-4-yl)ethyl]urea] | 50 | 
4 | COc1ccc(CC(NC(=O)NCCc2c[nH]cn2)C(=O)N2CCC(C(=O)NC(C)(C)C)(C3CCCCC3)CC2)cc1 (centres unmarked) [Example 1, 4-Cyclohexyl-1-[2-{3-[2-(1H-imidazol-4-yl)ethyl]ureido}-3-(4-methoxyphenyl)propionyl]piperidine-4-tert-butylcarbamoyl] | 60 | 
5 | CCOC(=O)C1(C2CCCCC2)CCN(C(=O)[C@@H](Cc2ccc(OC)cc2)NC(=O)NCCCc2cnc[nH]2)CC1 [Example 4, Ethyl 4-cyclohexyl-1-[(R)-2-{3-[3-(3H-imidazol-4-yl)propyl]-ureido}-3-(4-methoxyphenyl)propionyl]piperidine-4-carboxylate] | 20 | 500
6 | CCOC(=O)C1(C2CCCCC2)CCN(C(=O)[C@@H](Cc2ccc(OC)cc2)NC(=S)NCCc2cn(C)cn2)CC1 [Example 8, Ethyl 4-cyclohexyl-1-((R)-3-(4-methoxyphenyl)-2-{3-[2-(1-methyl-1H-imidazol-4-yl)ethyl]thioureido}propionyl)piperidine-4-carboxylate] | 50 | 1000

More lines, in order of falling EC50 (hMC4-R), values ahead:

Row | EC50 (hMC4-R) [nM] | EC50 (hMC1-R) [nM] | Structure (SMILES)
7 | 50 | 1000 | CCCC(=O)C1(C2CCCCC2)CCN(C(=O)[C@@H](Cc2ccc(OC)cc2)NC(=O)NCCc2cn(C)cn2)CC1 [Example 2, 1-[(R)-2-(4-Butyryl-4-cyclohexylpiperidin-1-yl)-1-(4-methoxybenzyl)-2-oxoethyl]-3-[2-(1-methyl-1H-imidazol-4-yl)ethyl]urea]
8 | 50 | 1000 | CCOC(=O)C1(C2CCCCC2)CCN(C(=O)[C@@H](Cc2ccc(OC)cc2)NC(=S)NCCCc2c[nH]cn2)CC1 [Example 7, Ethyl 4-cyclohexyl-1-[(R)-2-{3-[3-(1H-imidazol-4-yl)propyl]-thioureido}-3-(4-methoxyphenyl)propionyl]piperidine-4-carboxylate]
9 | 10 |  | CCOC(=O)C1(C2CCCCC2)CCN(C(=O)[C@@H](Cc2ccc(Cl)c(Cl)c2)NC(=O)NCCc2cncn2C)CC1 [Example 6, Ethyl 4-cyclohexyl-1-((R)-3-(3,4-dichlorophenyl)-2-{3-[2-(3-methyl-3H-imidazol-4-yl)ethyl]ureido}propionyl)piperidine-4-carboxylate]
